The target in data set [1] is SUMO-activating enzyme (Homo sapiens, UniProt Q9UBT2). Nature of the data set: blockers of UBC9-mediated SUMO conjugation – biochemical, AlphaScreen, SUMOylation inhibitor project, confirmation (AID 2018). The format is functional.
The target of data set [2] is Cytochrome P450 2C19 (Homo sapiens, UniProt P33261). Description: Cytochrome panel assay with activity outcomes. Panel member name: p450-cyp2c19 Compounds with AC50 equal or less than 10 uM are considered active. The class given is functional. Particulars: read-out: AC50.
The target in data set [3] is Cytochrome P450 2C9 (Homo sapiens, UniProt P11712).
The target in data set [4] is T1, Tyrosine-protein phosphatase non-receptor type 7 (Homo sapiens, UniProt P35236).
T1 sequence (P35236 whole entry): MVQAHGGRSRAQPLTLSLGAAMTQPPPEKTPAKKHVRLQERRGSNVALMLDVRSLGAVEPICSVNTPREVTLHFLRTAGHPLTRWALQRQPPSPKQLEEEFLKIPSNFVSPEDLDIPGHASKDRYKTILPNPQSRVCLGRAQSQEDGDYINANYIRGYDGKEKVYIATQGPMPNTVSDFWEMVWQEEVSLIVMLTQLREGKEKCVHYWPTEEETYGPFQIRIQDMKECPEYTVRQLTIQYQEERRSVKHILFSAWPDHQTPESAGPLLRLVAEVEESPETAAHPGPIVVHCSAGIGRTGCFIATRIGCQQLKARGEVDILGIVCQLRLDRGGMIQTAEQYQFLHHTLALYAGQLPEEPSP
The class given is functional.

Data set [5] deals with Glyceraldehyde-3-phosphate dehydrogenase (Homo sapiens, UniProt P04406).
The target in data set [6] is T2, Dual specificity protein phosphatase 6 (Rattus norvegicus, UniProt Q64346).
T2 sequence (Q64346 whole entry): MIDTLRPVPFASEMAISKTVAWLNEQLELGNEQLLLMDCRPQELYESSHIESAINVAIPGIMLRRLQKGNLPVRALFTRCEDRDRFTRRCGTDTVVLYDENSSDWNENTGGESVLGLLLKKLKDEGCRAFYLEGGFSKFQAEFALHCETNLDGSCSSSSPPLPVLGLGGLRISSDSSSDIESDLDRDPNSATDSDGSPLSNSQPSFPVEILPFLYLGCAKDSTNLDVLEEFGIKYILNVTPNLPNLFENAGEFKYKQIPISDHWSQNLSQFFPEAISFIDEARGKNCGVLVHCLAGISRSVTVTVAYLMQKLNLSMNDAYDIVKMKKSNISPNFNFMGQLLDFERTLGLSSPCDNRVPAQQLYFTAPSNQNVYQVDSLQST

Data set [7] addresses T2, Dual specificity protein phosphatase 6. The class given is functional.
Data set [8] deals with T3, Short transient receptor potential channel 4 (Mus musculus, UniProt Q9QUQ5).
T3 sequence (Q9QUQ5 whole entry): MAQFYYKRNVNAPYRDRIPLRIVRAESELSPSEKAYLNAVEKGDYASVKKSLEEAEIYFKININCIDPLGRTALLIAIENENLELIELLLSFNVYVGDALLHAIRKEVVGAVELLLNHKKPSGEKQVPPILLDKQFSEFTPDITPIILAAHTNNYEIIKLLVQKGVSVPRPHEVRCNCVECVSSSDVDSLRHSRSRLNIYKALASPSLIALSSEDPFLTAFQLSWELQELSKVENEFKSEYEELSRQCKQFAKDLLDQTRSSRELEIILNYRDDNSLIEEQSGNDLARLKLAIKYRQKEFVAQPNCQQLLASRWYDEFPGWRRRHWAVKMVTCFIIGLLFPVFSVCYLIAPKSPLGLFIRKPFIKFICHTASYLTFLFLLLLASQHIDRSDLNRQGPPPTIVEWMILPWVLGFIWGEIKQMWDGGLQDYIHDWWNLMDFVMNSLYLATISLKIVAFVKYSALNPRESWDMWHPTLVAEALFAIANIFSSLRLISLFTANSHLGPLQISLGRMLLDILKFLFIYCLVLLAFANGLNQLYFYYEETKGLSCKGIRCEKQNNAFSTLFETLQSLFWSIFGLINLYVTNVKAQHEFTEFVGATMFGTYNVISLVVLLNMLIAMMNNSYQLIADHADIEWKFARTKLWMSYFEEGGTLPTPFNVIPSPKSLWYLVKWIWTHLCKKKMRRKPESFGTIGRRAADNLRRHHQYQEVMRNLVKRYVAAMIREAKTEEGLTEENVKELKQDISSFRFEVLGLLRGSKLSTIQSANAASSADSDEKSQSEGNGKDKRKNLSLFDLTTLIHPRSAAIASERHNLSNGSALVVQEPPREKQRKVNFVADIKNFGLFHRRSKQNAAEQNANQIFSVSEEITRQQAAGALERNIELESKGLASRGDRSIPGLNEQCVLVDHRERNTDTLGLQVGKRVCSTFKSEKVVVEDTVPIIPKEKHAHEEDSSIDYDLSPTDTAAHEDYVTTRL
Description: calcium entry via TRPC4 opening agents – cell-based, HEK293 TRPC4/mu-opioid, Fluo-4 calcium, dose response (AID 434937). The format is functional.

In data set [9] the target is Delta-type opioid receptor (Homo sapiens, UniProt P41143). Nature of the data set: Counterscreen for agonists of heterodimerization of the mu 1 (OPRM1) and delta 1 (OPRD1) opioid receptors: Luminescence-based cell-based high throughput dose response assay to identify agonists of OPRD1 homodimerization. [Related pubchem assays (depositor defined):AID504326, AID504355, AID504692, AID504904, AID504905]. The class given is functional.

The target in data set [10] is Mu-type opioid receptor (Homo sapiens, UniProt P35372). Description: Counterscreen for agonists of heterodimerization of the mu 1 (OPRM1) and delta 1 (OPRD1) opioid receptors: Luminescence-based cell-based high throughput dose response assay to identify agonists of OPRM1 homodimerization. The format is functional.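 Further: U2OS cells expressing OPRM1 and beta-arrestin as split beta-galactosidase partners.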
In data set [11] the target is 5-hydroxytryptamine receptor 5A (Homo sapiens, UniProt P47898). Description: Counterscreen for agonists of OPRM1-OPRD1 heterodimerization: luminescence-based cell-based high throughput dose response assay to identify agonists of 5-hydroxytryptamine (serotonin) 5A receptor (HTR5A). [Related pubchem assays (depositor defined):AID504326, AID504355, AID504692, AID504904, AID504905]. The class given is functional. A general note: The purpose of a counterscreen is to sort out artefacts and off-target activity.

The target of data set [12] is T4, Ubiquitin-conjugating enzyme E2 N (Homo sapiens, UniProt P61088).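 Further: Dose-response confirmation in a TR-FRET assay detecting UBC13-driven polyubiquitin chain formation, inhibition measured.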
T4 sequence (P61088 whole entry): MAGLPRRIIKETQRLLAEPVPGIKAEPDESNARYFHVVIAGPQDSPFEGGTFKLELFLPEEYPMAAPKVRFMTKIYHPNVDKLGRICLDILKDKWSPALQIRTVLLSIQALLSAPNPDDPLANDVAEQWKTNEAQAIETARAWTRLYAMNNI
The format is functional.

Data set [13] deals with T5, Cytochrome P450 1A2 (Homo sapiens, UniProt P05177).
T5 sequence (P05177 whole entry): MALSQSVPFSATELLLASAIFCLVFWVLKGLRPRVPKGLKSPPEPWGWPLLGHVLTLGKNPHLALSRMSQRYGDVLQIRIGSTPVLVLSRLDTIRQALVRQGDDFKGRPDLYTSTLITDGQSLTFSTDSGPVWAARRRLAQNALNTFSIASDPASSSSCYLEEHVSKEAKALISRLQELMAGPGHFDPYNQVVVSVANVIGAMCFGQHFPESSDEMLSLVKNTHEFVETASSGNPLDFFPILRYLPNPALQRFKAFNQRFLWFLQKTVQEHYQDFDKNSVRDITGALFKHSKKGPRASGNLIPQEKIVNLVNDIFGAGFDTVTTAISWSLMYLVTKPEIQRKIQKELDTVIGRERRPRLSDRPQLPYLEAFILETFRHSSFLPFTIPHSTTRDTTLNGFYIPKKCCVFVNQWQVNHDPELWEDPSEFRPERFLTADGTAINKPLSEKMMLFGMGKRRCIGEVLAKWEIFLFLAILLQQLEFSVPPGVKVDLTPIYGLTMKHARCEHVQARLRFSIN

The nature of data set [14]: NIH-3T3 fibroblast cytotoxicity, dose response, cytotoxicity control, cell-based, fluorescence, Alamar Blue, secondary assay (AID 2327).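 Further: NIH-3T3 mouse fibroblasts cultured with fluconazole at 8 µg/mL.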 The format is functional. (In general: The colour change of resazurin is a common sign of viable cells or microbes.)
Data set [15] is described as follows: fluconazole-exposed Candida albicans growth modulators – fluorescence, retest, confirmation (AID 2467). The format is functional, cell-based.
Data set [16] concerns the target T6, Microphthalmia-associated transcription factor (Homo sapiens, UniProt O75030).
T6 sequence (O75030 whole entry): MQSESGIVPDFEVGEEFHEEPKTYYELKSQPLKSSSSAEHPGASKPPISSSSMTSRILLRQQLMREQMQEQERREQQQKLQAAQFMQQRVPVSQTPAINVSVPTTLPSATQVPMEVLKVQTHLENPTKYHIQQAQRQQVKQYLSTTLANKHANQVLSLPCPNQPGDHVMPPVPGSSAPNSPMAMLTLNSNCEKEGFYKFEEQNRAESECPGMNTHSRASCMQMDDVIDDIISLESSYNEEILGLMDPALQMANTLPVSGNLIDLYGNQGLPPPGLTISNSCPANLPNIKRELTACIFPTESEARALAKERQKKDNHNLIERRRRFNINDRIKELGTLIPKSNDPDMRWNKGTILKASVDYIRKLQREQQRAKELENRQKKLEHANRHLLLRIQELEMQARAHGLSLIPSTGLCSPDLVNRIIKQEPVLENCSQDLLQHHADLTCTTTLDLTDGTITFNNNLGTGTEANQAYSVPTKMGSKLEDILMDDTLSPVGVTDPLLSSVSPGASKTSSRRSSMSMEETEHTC
Nature of the data set: reducers of TRPM1 reporter luminescence, concentration series – cell-based, SK-MEL-5, cherry-picked, set 3, MITF inhibitor project, dose response (AID 493073).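 Further: SK-MEL-5 melanoma cells with luciferase driven by the MITF target TRPM1 promoter.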 The format is functional.

The subject of data set [17] is INS1. Description: INS-1E survival protection against cytokine death – cell-based, luminescence, retest, dose response (AID 449756).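 Further: cell death triggered by IL-1 beta plus TNF-alpha plus IFN-gamma mixture; protective hits raise ATP signal compared with cytokine alone wells.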 To be noted: Rattus norvegicus. The class given is functional.
The subject of data set [18] is Vero. Nature of the data set: cells. The format is functional. To be noted: Chlorocebus sabaeus.
Data set [19] concerns the target Protein Wnt-3a (Mus musculus, UniProt P27467). Description: antagonism of Wnt3a pathway luciferase reporter – Wnt-LIGHT cells, luminescence, selectivity assay for Gli-SUFU antagonist project, dose response (AID 651570).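 Further: Wnt-LIGHT reporter cells stimulated with conditioned medium from Wnt3a-producing cells.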 The class given is functional. To be noted: read-out: IC50_Mean.
The subject of data set [20] is HEK293. Nature of the data set: inhibition of NOD1-driven NF-kB reporter – cell-based, luminescence, uHTS, primary screen (AID 1578). The format is functional. To be noted: Homo sapiens.
For data set [21], the system named is HEK293. Description: cells. The class given is functional, cell-based. Particulars: Homo sapiens.
Data set [22] has as its system HEK293. Description: cells. The class given is functional, cell-based. Particulars: Homo sapiens. This is another data set of the same source.
Data set [23] has as its system HEK293. Description: NOD2 signaling inhibitors in MDP-stimulated cells, cell-based, uHTS, luminescence (AID 2001). The format is functional. Particulars: Homo sapiens.

Data on nine compounds can be found in ChEMBL document CHEMBL1201862, “PubChem BioAssay data set” (2004).

The source made the active and inactive calls. A value given as a limit tells only on which side of the number the result lay.

Chain of Glyceraldehyde-3-phosphate dehydrogenase (P04406 whole entry): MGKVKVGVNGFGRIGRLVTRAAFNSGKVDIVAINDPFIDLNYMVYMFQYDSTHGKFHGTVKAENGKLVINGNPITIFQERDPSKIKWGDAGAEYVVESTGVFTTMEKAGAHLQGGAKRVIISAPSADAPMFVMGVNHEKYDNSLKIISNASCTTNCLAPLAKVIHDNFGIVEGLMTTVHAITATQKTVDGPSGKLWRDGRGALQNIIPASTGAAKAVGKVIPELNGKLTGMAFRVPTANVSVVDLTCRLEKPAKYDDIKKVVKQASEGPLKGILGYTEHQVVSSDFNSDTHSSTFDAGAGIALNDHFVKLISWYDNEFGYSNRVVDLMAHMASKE
Chain of Delta-type opioid receptor (P41143 whole entry): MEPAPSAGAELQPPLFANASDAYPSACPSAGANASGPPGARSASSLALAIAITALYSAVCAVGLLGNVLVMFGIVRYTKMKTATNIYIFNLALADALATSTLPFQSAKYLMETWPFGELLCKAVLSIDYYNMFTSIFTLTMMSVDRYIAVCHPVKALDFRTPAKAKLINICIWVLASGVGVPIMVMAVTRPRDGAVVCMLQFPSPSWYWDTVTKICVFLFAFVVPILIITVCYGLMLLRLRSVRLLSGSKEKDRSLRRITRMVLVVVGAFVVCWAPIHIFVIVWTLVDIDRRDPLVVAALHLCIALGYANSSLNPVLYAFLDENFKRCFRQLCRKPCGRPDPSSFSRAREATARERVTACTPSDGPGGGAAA
Chain of 5-hydroxytryptamine receptor 5A (P47898 whole entry): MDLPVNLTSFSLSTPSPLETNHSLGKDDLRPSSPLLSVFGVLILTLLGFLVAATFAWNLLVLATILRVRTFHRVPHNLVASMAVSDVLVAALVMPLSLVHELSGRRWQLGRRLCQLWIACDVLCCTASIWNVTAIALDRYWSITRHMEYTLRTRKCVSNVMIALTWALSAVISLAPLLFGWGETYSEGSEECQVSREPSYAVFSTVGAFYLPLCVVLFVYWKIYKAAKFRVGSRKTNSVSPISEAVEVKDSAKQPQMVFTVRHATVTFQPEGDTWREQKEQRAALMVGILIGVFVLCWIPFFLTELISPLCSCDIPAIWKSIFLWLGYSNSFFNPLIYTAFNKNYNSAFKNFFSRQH
Chain of Mu-type opioid receptor (P35372 whole entry): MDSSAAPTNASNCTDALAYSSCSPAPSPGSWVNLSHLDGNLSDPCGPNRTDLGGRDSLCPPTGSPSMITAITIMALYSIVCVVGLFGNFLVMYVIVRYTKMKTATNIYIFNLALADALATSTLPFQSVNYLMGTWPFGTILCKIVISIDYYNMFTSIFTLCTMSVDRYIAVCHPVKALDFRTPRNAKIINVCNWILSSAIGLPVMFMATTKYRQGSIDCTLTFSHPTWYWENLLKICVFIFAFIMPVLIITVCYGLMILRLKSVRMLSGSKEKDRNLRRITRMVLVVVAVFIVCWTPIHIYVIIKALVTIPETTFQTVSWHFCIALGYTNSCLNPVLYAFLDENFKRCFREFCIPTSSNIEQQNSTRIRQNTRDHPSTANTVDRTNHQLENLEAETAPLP
Chain of Cytochrome P450 2C9 (P11712 whole entry): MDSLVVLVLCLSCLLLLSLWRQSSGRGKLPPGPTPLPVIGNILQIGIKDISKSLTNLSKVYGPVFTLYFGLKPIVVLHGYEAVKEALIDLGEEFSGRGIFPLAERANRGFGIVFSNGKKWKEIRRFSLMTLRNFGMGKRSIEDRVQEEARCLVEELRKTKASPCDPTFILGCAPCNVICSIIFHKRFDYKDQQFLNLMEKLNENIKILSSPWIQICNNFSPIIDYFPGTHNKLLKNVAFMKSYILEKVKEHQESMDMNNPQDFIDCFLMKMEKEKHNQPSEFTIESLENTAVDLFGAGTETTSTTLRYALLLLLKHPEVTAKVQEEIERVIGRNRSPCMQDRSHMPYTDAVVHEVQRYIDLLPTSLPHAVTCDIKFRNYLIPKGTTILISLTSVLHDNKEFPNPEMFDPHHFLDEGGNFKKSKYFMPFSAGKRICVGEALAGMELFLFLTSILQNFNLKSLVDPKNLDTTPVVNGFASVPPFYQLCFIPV
Chain of Cytochrome P450 2C19 (P33261 whole entry): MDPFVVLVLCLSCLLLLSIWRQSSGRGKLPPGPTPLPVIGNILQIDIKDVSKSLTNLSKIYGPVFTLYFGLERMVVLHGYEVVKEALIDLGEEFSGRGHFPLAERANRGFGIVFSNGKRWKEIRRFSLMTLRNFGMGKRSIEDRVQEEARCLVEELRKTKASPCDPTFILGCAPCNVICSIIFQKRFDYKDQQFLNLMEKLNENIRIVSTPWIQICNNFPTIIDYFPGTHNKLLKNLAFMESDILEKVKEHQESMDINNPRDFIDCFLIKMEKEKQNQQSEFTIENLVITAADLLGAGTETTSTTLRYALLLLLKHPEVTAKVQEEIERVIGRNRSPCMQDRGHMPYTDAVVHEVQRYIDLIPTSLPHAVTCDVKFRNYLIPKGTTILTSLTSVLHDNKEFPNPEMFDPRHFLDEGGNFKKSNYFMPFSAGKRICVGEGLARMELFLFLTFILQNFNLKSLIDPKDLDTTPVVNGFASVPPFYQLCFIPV
Chain of SUMO-activating enzyme (Q9UBE0 whole entry): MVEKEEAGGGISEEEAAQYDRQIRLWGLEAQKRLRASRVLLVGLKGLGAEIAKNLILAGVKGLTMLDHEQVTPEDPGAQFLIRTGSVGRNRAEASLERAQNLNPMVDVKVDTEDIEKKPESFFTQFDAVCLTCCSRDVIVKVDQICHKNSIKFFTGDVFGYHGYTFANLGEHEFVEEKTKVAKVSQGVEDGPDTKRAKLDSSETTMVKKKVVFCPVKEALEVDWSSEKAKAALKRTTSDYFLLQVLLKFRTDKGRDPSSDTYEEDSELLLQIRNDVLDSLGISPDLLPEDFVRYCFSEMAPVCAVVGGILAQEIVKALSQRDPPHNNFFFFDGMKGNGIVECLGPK
Chain of SUMO-activating enzyme (Q9UBT2 whole entry): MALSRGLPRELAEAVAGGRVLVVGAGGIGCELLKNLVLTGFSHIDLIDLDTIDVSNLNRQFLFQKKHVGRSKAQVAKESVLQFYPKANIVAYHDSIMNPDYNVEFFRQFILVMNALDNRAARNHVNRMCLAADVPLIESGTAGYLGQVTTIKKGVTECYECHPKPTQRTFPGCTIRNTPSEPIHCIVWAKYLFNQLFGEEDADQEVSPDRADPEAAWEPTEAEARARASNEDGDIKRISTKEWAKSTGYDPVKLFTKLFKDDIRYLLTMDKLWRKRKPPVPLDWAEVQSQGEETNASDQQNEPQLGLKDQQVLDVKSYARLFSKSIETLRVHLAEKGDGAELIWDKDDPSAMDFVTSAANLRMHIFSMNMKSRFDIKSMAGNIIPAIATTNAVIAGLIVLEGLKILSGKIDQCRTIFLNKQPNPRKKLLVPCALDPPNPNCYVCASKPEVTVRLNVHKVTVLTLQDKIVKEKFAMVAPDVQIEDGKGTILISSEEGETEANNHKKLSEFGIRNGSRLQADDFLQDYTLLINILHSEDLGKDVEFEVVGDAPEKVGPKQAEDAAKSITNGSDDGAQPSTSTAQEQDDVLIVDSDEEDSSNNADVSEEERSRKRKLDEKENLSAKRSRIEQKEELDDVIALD
Chain of Protein Wnt-3a (P27467 whole entry): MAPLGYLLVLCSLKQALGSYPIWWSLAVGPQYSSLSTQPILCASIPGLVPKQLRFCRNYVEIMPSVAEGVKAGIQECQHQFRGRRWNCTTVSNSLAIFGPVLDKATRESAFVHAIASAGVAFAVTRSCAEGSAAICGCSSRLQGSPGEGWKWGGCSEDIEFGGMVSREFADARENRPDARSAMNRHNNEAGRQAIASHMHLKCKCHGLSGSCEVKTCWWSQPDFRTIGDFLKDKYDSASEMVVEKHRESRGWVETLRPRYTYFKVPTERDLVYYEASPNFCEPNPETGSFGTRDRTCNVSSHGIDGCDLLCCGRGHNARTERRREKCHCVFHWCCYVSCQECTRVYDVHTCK

One may read the AC50 as the midpoint of the concentration-response curve, whichever way the signal moves. With `O=C(NNC(=O)c1sc2ccccc2c1Cl)Nc1ccc(Cl)cc1`, the IC50 in data set [1] was 25.8 µM (active). In addition, the values for the AC50 in data set [2] and in data set [3] were 3.55 µM (inconclusive) and “inconclusive”, respectively.

On to `Cn1c(=O)n(CC(N)=O)c(=O)n(-c2ccccc2)c1=O`, for which the IC50 is > 100 µM (not active) in [4], > 100 µM (not active) in data set [5], > 100 µM (inactive) in data set [6] and > 100 µM (inactive) in data set [7].

As to `Clc1cccc(Cl)c1COc1nnc(-c2cccs2)c(-c2cccs2)n1`, the IC50 in data set [4] is > 100 µM (not active); in data set [5], > 100 µM (not active); in data set [6], > 100 µM (inactive); in data set [7], > 100 µM (inactive).

Consider `COCCCNc1nc(=O)n(-c2ccc(F)cc2)c(=O)[nH]1`, for which the IC50 in [4] was > 100 µM (not active); in [5], > 100 µM (not active); in data set [6] it was > 100 µM (inactive); in [7], > 100 µM (inactive).

A word on the EC50: it is the concentration needed to bring the measured effect to its halfway point. As to `CN(C)c1ccc(C(CNC(=O)Cc2cccc3ccccc23)N(C)C)cc1` (stereo not given), the EC50 in [8] is 0.944 µM (active); in data set [9], > 92.4 µM (inactive); in [10], > 92.4 µM (inactive); in data set [11], > 92.4 µM (inactive).

With `CC[C@@H](C)[C@@H]1CN([C@@H](CN2CCC[C@H]2CN2C(N)=NC[C@H]2C(C)C)C(C)C)C(=N)N1CCc1ccc(Cl)c(Cl)c1`, in [12], the IC50 was > 20 µM (inactive). The EC50 is > 92.5 µM (inactive) in data set [9], 10.9 µM (inactive) in [10] and > 92.5 µM (inactive) in data set [11].

Take `C[C@@]12CC[C@@H]3c4ccc(O)cc4CC[C@H]3[C@H]1CC[C@H]2O`: the AC50 in [13] is 5.01 µM (inconclusive); in [3] it was “inconclusive”.

Usually CC50 stands for the concentration giving 50% cytotoxicity. For `CCOc1ccc(N2C(=O)/C(=C\NNc3nc(C)cc(C)n3)c3ccccc3C2=O)cc1`, the concentration for a half-maximal effect (EC50) is 47.9 µM (active) in data set [14] and > 38 µM (not active) in data set [15]. The AC50 in data set [16] is 3.48 µM (active); in data set [17], 2.24 µM (active). In addition, the cytotoxic concentration (CC50) in [18] was 10.3 µM (active). Moreover, the IC50 in data set [19] was 11.2 µM (active).

As to `Cc1cccc(NC(=O)c2cccc(NS(=O)(=O)c3ccc(Cl)cc3)c2)c1`, the concentration for a half-maximal effect (EC50) in data set [20] was 9.39 µM (active). Moreover, the IC50 in [21] was > 20 µM (inactive); in data set [22], > 20 µM (inactive); in [23], 12.6 µM (inactive).
